In article PMC9234961 (Journal of Medicinal Chemistry, 2022):
Values joined by “and” are separate entries in the source; they are usually repeats but may differ in a detail not shown here. Equal entries are not always repeated. Where two headings read alike, the source gives them in different places.

Legend:
kinases (468) [1] = molecular target: kinases (468) (Homo sapiens, UniProt P42336); details: PIK3CA; 1000 nM
kinases (468) [2] = molecular target: kinases (468) (Homo sapiens, UniProt O43353); details: kinase RIPK2 (Entrez RIPK2); compound concentration 1000 nM
Sequence of kinases (468) (Homo sapiens, UniProt O43353) (O43353 whole entry): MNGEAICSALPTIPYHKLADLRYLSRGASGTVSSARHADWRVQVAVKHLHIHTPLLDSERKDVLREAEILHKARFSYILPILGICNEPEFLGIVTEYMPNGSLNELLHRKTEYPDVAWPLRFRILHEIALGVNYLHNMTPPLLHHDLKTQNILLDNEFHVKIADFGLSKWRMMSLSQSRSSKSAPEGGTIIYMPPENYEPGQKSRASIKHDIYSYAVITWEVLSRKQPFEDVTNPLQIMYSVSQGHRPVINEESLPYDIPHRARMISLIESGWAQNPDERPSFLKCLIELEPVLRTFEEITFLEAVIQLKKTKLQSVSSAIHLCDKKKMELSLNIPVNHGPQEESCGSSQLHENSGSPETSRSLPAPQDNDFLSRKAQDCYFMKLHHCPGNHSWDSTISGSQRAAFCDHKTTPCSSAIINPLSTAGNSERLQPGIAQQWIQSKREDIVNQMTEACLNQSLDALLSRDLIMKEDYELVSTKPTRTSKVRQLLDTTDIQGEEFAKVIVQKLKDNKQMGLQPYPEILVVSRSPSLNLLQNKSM

kinases (468) [3] = molecular target: kinases (468) (Homo sapiens, UniProt P42336, H1047Y); details: PIK3CA(H1047Y); 1000 nM
Sequence of kinases (468) (Homo sapiens, UniProt P42336, H1047Y) (P42336 whole entry H1047Y): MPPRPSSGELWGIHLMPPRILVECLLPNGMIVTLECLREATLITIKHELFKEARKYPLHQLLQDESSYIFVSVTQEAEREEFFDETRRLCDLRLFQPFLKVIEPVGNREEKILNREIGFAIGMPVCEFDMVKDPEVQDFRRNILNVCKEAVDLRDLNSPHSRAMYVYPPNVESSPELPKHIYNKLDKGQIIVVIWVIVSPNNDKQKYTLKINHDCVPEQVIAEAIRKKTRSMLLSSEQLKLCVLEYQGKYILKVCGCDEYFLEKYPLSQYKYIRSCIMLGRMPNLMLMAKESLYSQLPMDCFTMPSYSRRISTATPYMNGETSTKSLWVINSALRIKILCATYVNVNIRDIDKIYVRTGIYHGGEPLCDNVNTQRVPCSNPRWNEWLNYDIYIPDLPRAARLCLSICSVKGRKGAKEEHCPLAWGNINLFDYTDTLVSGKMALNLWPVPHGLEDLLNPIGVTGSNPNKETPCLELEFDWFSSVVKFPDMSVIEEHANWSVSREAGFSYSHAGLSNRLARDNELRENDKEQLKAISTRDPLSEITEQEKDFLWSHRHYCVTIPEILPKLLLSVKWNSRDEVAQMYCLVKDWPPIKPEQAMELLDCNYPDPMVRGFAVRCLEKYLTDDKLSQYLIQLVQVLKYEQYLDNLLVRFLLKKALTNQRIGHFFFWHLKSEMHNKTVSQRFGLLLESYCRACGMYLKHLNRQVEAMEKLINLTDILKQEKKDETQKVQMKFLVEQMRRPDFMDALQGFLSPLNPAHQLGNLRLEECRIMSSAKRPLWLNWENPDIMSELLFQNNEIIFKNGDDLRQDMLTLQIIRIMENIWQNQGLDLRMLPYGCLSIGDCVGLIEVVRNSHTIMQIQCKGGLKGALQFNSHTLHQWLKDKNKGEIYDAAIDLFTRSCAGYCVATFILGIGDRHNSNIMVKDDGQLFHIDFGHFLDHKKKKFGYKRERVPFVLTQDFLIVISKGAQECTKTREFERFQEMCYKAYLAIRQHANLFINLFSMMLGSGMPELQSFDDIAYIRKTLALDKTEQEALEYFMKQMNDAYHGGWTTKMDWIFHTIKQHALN

kinases (468) [4] = molecular target: kinases (468) (Homo sapiens, UniProt P08069); details: IGF1R; 1000 nM
Sequence of kinases (468) (Homo sapiens, UniProt P08069) (P08069 31-1367): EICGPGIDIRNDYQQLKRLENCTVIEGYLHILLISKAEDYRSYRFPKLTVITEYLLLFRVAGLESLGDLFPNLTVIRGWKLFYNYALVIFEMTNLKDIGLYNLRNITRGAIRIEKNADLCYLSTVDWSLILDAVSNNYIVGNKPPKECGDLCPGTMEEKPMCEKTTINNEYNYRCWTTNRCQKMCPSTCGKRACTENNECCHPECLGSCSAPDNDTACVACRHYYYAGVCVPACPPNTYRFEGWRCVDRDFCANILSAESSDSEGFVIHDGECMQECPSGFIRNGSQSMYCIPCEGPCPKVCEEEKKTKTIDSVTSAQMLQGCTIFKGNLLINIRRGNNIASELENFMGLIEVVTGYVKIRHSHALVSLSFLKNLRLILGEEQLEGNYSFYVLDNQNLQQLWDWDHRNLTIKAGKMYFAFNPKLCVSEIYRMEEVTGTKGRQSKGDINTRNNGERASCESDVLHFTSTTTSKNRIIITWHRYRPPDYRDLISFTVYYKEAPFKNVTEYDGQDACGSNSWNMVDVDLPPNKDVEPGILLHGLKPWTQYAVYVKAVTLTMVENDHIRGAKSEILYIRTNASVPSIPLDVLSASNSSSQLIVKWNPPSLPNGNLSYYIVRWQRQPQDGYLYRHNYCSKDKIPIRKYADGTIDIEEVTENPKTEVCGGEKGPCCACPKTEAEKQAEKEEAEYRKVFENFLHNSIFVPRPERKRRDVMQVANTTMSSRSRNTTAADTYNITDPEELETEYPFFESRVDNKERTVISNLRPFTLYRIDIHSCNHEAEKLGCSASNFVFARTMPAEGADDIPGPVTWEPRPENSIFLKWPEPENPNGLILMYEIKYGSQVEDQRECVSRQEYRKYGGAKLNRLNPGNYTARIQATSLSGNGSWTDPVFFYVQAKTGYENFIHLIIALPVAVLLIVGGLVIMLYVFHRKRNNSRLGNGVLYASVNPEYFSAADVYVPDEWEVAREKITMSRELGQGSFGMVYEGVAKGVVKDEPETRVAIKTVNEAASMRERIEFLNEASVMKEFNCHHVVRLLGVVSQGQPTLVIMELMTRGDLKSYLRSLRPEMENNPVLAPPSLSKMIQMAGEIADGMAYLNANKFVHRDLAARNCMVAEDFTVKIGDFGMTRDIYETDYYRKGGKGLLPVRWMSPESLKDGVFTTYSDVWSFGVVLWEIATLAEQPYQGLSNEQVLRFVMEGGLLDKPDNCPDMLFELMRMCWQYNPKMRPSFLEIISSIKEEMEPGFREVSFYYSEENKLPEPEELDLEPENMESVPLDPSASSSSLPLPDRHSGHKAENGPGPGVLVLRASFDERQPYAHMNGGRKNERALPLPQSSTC

kinases (468) [5] = molecular target: kinases (468) (Homo sapiens, UniProt P43403); details: kinase ZAP70 (Entrez ZAP70); compound concentration 1000 nM
Sequence of kinases (468) (Homo sapiens, UniProt P43403) (P43403 whole entry): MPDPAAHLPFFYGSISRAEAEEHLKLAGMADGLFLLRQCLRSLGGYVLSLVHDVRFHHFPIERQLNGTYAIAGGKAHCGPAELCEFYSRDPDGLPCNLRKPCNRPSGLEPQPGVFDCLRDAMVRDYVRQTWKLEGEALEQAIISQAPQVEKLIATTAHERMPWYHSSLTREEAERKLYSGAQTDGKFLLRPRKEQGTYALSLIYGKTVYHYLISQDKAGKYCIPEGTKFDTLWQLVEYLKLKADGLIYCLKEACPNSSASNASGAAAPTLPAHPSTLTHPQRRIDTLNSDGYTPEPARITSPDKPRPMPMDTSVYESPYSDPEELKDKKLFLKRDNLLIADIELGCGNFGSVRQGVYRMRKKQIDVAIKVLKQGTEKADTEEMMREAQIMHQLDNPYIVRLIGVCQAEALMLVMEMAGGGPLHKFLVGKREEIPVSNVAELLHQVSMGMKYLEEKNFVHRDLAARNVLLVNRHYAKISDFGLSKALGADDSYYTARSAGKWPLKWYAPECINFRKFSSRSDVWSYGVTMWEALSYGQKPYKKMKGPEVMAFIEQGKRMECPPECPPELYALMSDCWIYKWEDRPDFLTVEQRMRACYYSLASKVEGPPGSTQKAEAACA

kinases (468) [6] = molecular target: kinases (468) (Homo sapiens, UniProt P20794); details: MAK; 1000 nM
Sequence of kinases (468) (Homo sapiens, UniProt P20794) (P20794 whole entry, the tested form may be a part): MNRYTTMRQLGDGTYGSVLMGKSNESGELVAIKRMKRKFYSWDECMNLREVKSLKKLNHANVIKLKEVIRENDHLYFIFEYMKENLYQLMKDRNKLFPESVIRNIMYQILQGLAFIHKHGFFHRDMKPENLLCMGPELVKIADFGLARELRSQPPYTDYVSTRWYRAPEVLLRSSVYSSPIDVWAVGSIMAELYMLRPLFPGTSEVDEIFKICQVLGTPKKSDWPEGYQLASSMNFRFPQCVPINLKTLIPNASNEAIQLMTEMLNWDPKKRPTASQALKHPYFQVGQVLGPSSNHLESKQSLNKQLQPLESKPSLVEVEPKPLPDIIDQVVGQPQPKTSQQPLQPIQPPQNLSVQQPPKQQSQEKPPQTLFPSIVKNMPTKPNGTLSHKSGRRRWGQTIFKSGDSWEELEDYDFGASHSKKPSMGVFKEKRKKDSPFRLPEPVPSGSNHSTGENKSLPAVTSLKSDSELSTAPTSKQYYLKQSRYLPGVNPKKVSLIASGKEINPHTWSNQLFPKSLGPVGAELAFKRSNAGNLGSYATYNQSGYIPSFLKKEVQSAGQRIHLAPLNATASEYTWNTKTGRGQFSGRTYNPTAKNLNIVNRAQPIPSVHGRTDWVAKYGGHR

human BCL6 BTB domain [7] = molecular target: T1, human BCL6 BTB domain (Homo sapiens, UniProt P41182); assay: biochemical; details: BCL6 TR-FRET IC50 individual replicates, single replicate values
[8] = molecular target: BCL6 in OCI-Ly1 DLBCL xenograft (Homo sapiens, UniProt P41182); details: single dose 50 mg/kg po
Method: weighed and dosing volumes adjusted accordingly.
7.3.2 Preparation of OCI-Ly1 xenograft model in mouse
Twenty days post injection 24 tumour-bearing mice (between 0.4 and 0.6 cm3) were selected for the study
Mice were then grouped n=3 for the following time points: 12, 16 & 24 hours
Compounds and vehicle were administered po (formulated as described in Supplementary experimental
Blood (~1 mL) was taken from anaesthetized mice, via intracardiac puncture, using a 27 gauge needle and
a syringe pre-coated with heparin (200 Units/mL), The heparinized blood was microcentrifuged for 2
minutes and ~200 uL of plasma was aspirated to a labelled tube, frozen on dry-ice and dedicated to
pharmacokinetic analysis (PK). Each tumour was excised, divided into two halves, weighed and then snap
frozen in liquid nitrogen, dedicating one half to PK analysis and the other half to pharmacodynamic analysis (PD). All frozen material was permanently stored in a -80°C freezer.
Tumours were lysed in lysis buffer (50 mM Tris-HCl, pH 7.4, 150 mM NaCl, 1% Triton X-100 (v/v), 1 mM PMSF, 1 mM activated sodium vanandate, 1 mM EDTA, phosphatase inhibitors 2 and 3 (1:50m dilution) and protease cocktail (1:100 dilution)) using reinforced homogenizing tubes containing metal beads using a Precellys 24 with cryolys cooling at 6000 rpm, 2 × 20 s (Stretton Scientific). Lysates were incubated on ice for 15 minutes, spun at 14000 rpm at 4 °C for 10 minutes and supernatants collected and aliquoted.
Samples were stored at -80 °C until use. Protein concentration was determined by diluting 1:10 with lysis buffer and measuring on Direct Detect® spectrometer according to manufacturer’s instructions.
according to manufacturer’s instructions (ProteinSimple) with multiplexing BCL6 (CST14895 at 1:150
Data was analysed using Compass for SW software. BCL6 data was normalised to GAPDH and transferred to GraphPad Prism 7.

human BCL6 BTB domain [9] = molecular target: T1, human BCL6 BTB domain
BCL6 in Karpas 422 cells = BCL6 in Karpas 422 cells (Homo sapiens, UniProt P41182); assay: cell-based
Method: 3.2 Mesoscale Discovery (MSD) Degradation Assay
An MSD assay was developed for screening of compounds to determine the degradation of endogenous BCL6 in OCI-Ly1 cells. Briefly, test compounds in DMSO or DMSO alone to a total of 1332.5 nL/well were dispensed to a 96-well Nunc™ Edge 2 plate (ThermoFisher Scientific, 267544) using an Echo® 550 acoustic […]
supplemented with 10% heat-inactivated fetal bovine serum (Sera Plus, PAN Biotech, P30-3702) were […]
incubation at 37 °C + 5% CO2 the plate was centrifuged at 300 x g for 5 minutes. […]
plate washer for all wash and aspiration steps, media was removed and cells were rinsed with PBS, centrifuged as before and PBS removed. Cells were lysed in 50 µL ice-cold lysis buffer at pH 7.4 containing 50 mM Tris-HCl, 150 mM NaCl, 1 % Triton X-100 (v/v), 1 mM PMSF, 1 mM activated sodium vanadate, 1 mM EDTA, phosphatase inhibitors 2 and 3 (1:50 dilution) and protease inhibitor cocktail (1:100 dilution).
20 °C or continuing the assay. A 96-well MSD standard bind plate (MSD, L15XA-3) which was coated overnight with 1 µg/mL anti-human BCL6 goat antibody in PBS (R&D Systems, AF5046) was blocked in 3% BSA in TBS + 0.1% Tween-20 for 1 hour with shaking. Wells were emptied thoroughly before 40 µL/well of lysate was transferred from the cell plate. The MSD plate was incubated at RT for 1 hour with shaking then washed three times with TBS + 0.1 % Tween-20. Antibodies were prepared in TBS + 0.1% Tween-20 + 1% BSA. Anti-human BCL6 rabbit antibody (Cell Signalling Technology, 14895S) was added at 1:100 dilution at 25 µL/well. The plate was incubated and washed as before. MSD Sulfo-tag anti-rabbit detection antibody (MSD, R32AB-1) at 1:1000 dilution at 25 µL/well was added. The plate was incubated and washed as before and MSD Gold read buffer (MSD R92TG) at 1:1 dilution with water at 150 µL/well was added. The plate was read within 10 minutes on the MSD Quickplex reader. The % inhibition at each […]
3.3 Cell proliferation assay
Aldrich) supplemented with 10% FBS (Gibco). […]
transferred onto the cells.
Assay plates containing cells […]

[10] = logD7.4 assay (Chrom log D method); assay type: physicochemical; details: reversed-phase HPLC on Phenomenex Luna C8 column, pH 7.4, read-out: Measured logD7.4
How it was run: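 Samples at 1mM in 10% DMSO/90% Trizma buffer (100mM Trizma in 75/25 methanol/water) injected onto a C8 column at 30°C under gradient elution at 2 mL/min. Retention calibrated against calibration and validation standards.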

HT DLBCL xenograft = assay: Efficacy study in HT DLBCL xenograft model; assay type: in vivo, mouse
Method: single treatment of vehicle.
7.3.3 Preparation of HT Cells […]
subcultured 1:4 every 3-4 days. […]
pharmacokinetic analysis (PK).
7.3.6 Tumour lysis and Wes method
Lysates were incubated on
Samples were stored at -80 °C until use.
Data was analysed using Compass for SW software. BCL6

[11] = In vivo pharmacokinetic study in Balb/C mice; set-up: species or system mouse; details: for Vd: 1 mg/kg, read-out: Vss
[12] = molecular target: endogenous BCL6 in OCI-Ly1 cells (Homo sapiens, UniProt P41182); assay: cell-based

Sequence of kinases (468) (Homo sapiens, UniProt P42336) (P42336 whole entry): as the sequence (P42336 whole entry H1047Y) above, with Y1047H counted along it

For `C[C@H]1C[C@@H](O)CN(c2ncc(Cl)c(Nc3ccc4c(c3)c3c(c(=O)n4C)OCC(F)(F)[C@H](C4CC4)N3)n2)C1` [CCT373566_9A], which “Percent Control” value (kinases (468) [1]) is on record?
Its value is 100%.

What about the “Percent Control” value (kinases (468) [2]) of the same compound?
Its value is 100%.

And the “Percent Control” value (kinases (468) [3])?
The value was 94%.

What about the “Percent Control” value (kinases (468) [4]) of the same compound?
The value was 100%.

What about the “Percent Control” value (kinases (468) [5]) of the same compound?
Its value is 100%.

What about the “Percent Control” value (kinases (468) [6]) of the same compound?
The value was 93%.

Which IC50 (human BCL6 BTB domain [7]) does the source give for `C[C@H]1C[C@@H](O)CN(c2ncc(Cl)c(Nc3ccc4c(c3)c3c(c(=O)n4C)OCC(F)(F)[C@H](C4CC4)N3)n2)C1` [12a CCT373566, (S)-10-((5-Chloro-2-((3R,5S)-3-hydroxy-5-methylpiperidin-1-yl)pyrimidin-4-yl)amino)-2-cyclopropyl-3,3-difluoro-7-methyl-1,2,3,4-tetrahydro-[1,4]oxazepino[2,3-c]quinolin-6(7H)-one] here?
The IC50 was 3.8 nM and 1.9 nM and 1.7 nM and 2.6 nM (3×) and 2.4 nM and 2.9 nM and 1.8 nM (3×) and 1.2 nM and 2.7 nM.

And the adverse events ([8]; OCI-Ly1 xenograft SCID mice)?
The adverse events was “No visible adverse events were observed”.

And the “tumor concentrations versus plasma concentrations” value ([8]; 12, 16, 24 h)?
The value was “lower than plasma concentrations at all time points”.

What about the “BCL6 levels in tumor” value ([8]; 12, 16 and 24 h after dosing) of the same compound?
Its value is “significantly decreased at all time points”.

And the “BCL6 TR-FRET pIC50 mean” value (human BCL6 BTB domain [9]; mean of replicates)?
Its value is 8.6638.

And the IC50 (human BCL6 BTB domain [9]; read-out: BCL6 TR-FRET IC50 individual replicates, single replicate values)?
Its IC50 is 2.3 nM (3×) and 2.1 nM (3×).

What about the Dmax (BCL6 in Karpas 422 cells; KARPAS-422, read-out: MSD degrader assay [Karpas 422] Dmax) of the same compound?
Its Dmax is 85%.

And the DC50 (BCL6 in Karpas 422 cells; read-out: MSD degrader assay [Karpas 422] DC50, Karpas 422 cells)?
Its DC50 is 1 nM.

And the chromatographic logD [10]?
Its chromatographic logD is 3.

And the T/C (HT DLBCL xenograft; 50 mg/kg BID, 22 days)?
Its T/C is 60%.

And the “BCL6 levels after the last dose” value (HT DLBCL xenograft; 50 mg/kg po bid for 22 days, 4 h and 12 h after last dose)?
Its value is “remained decreased 4 h and 12 h after the last dose”.

What about the body weight (HT DLBCL xenograft; 50 mg/kg po bid, 22 days) of the same compound?
The body weight was “No body weight losses were observed”.

And the “tumor growth compared to the vehicle control group” value (HT DLBCL xenograft; 50 mg/kg po bid, 22 days)?
The value was “modest decrease in tumor growth”.

And the “appearance of mice after dosing” value ([11]; 1 mg/kg i.v. and 5 mg/kg p.o., female Balb/C mice, after dosing and 24 h after dosing)?
Its value is “appeared normal”.

And the “increase in free concentration/exposure in vivo compared to CCT369260” value ([11]; 5 mg/kg po, BALB/c mice)?
Its value is “over fivefold increase”.

And the Vd ([11]; Balb/C, mouse, whole blood, intravenous, initial PK studies)?
Its Vd is 0.47 L/kg.

What about the “CL as % Qh” value ([11]; female Balb/C mice) of the same compound?
The value was 6 % Qh.

What about the bioavailability ([11]; female, Balb/C, mouse, in vivo, po, 5 mg/kg) of the same compound?
The bioavailability was 44%.

And the Vd ([11]; mouse, in vivo, female Balb/C mice)?
The Vd was 0.47 L/kg.

What about the clearance ([11]; mouse, in vivo, iv, female Balb/C mice, 1 mg/kg i.v.) of the same compound?
The clearance was 5.7 mL/min/kg.

What about the half-life at 6 h ([11]; mouse, in vivo, po, 5 mg/kg, female Balb/C mice) of the same compound?
The half-life at 6 h was 1.15 h.

What about the Cmax ([11]; mouse, in vivo, female Balb/C mice, 1 mg/kg i.v. and 5 mg/kg p.o.) of the same compound?
Its Cmax is 3.95 µM.

And the CLu ([11]; unbound clearance, female Balb/C mice)?
The CLu was 4670 mL/min/kg.

And the Dmax ([12]; OCI-Ly1, read-out: MSD degrader assay [OCI-LY1] Dmax individual replicates, single replicate values)?
Its Dmax is 89.8%.

What about the Dmax ([12]; OCI-Ly1, read-out: MSD degrader assay [OCI-Ly1] Dmax, mean maximal degradation of BCL6, OCI-Ly1 cells, 2 h) of the same compound?
The Dmax was 91.5%.

What about the “degradation of BCL6 (in words)” value ([12]; OCI-Ly1 MSD assay) of the same compound?
The value was “potently degrading isomer”.

What about the “MSD degrader assay [OCI-Ly1] DC50” value ([12]; geometric mean, OCI-Ly1 cells, 2 h incubation) of the same compound?
Its value is “sub-nanomolar”.

What about the “MSD degrader assay [OCI-Ly1] Dmax” value ([12]; mean maximal degradation of BCL6, OCI-Ly1 cells, 2 h) of the same compound?
Its value is > 90%.

And the “MSD degrader assay [OCI-LY1] pDC50 mean” value ([12]; mean of replicates)?
Its value is 9.1465.

What about the DC50 ([12]; read-out: Calculated free DC50 [OCI-Ly1], DC50 corrected with fu,media) of the same compound?
Its DC50 is 0.088 nM.

What about the DC50 ([12]; read-out: MSD degrader assay [OCI-LY1] DC50 individual replicates, single replicate values) of the same compound?
The DC50 was 1 nM and 0.9 nM (4×) and 1.5 nM and 0.5 nM (2×) and 0.8 nM and 1.2 nM and 0.3 nM and 0.6 nM (3×) and 0.4 nM (2×) and 1.3 nM.

What about the DC50 ([12]; read-out: MSD degrader assay [OCI-Ly1] DC50, geometric mean, OCI-Ly1 cells, 2 h incubation) of the same compound?
The DC50 was 0.7 nM.

And the “MSD degrader assay [OCI-LY1] Dmax individual replicates” value ([12]; single replicate values)?
The value was 90.3% and 91.7% and 95.3% (2×) and 94.5% and 93.1% and 94.4% and 94.1% and 92.7% and 96.2% and 84.1% and 84.0% and 89.6% and 88.7% and 89.5% and 92.4%.
